Laboratory results from paper PMC6382835, “A critical evaluation of TRPA1-mediated locomotor behavior in zebrafish as a screening tool for novel anti-nociceptive drug discovery” (Scientific Reports, 2019).

Key:
mouse TRPA1 (mTRPA1) = target: T1, mouse TRPA1 (mTRPA1) (Mus musculus, UniProt Q8BLA8); test: FLIPR calcium signaling assay in mTRPA1-transfected HEK293 cells; format: cell-based; conditions: for EC50: read-out: EC50 (potency in µM)
T1 construct: host or cells: HEK293 (ATCC CRL-1573), transient transfection
Description: HEK293 cells (#CRL-1573, ATCC, VA, USA) were cultured in DMEM media (#11995-065, Sigma-Aldrich, MO, USA) with 10% Fetal Bovine Serum (#F0926-500ML, Thermo Fisher, MA, USA). The cells were maintained in a 37 °C incubator with consistent 5% CO2. They were seeded in a clear 6 well flat bottom cell culture plates (#07-200-83, Corning ®, Thermo Fisher) with 500,000 cells/2 ml/well for transfection, in serum-free Opti-MEM (#31985070, Gibco®, Thermo Fisher). These cells were transfected with pcDNA3.1-mTRPA1 (#MR227099, OriGene, MD, USA), pcDNA3.1-zTRPA1a, or pcDNA3.1-zTRPA1b (a gift from Dr. David Prober) using X-tremeGENE^TM 9 (#6365809001, Sigma-Aldrich). After 24 hours, the transfected cells were dislodged with trypsin, resuspended in Opti-MEM, and seeded 25,000 cells/25 µl/well in 384-well black polystyrene microplates (#82051-296, VWR, PA, USA) for testing calcium signaling the following day. Experiments were carried out with the approval of the Institutional Biohazard Committee (#13-013-16).
Twenty-five µl calcium sensitive Fluorescent Imaging Plate Reader (FLIPR) Calcium 6 assay dye (#R8190, Molecular Devices, CA, USA) was added to each well of a 384-well plate containing HEK293 cells transiently expressing mTRPA1, zTRPA1a, and zTRPA1b, respectively. The cells were incubated for an hour prior to the recording of intracellular calcium levels in a FlexStation3 Multi-Mode Microplate Reader (#R8190, Molecular Devices) as previously described. All compounds were diluted in calcium buffer made with 1x HBSS (#14025-092, Thermo Fisher), 20 mM HEPES (#15630-080, Thermo Fisher), and 2.5 mM Probenecid (#P8761, Sigma-Aldrich). For agonist studies, ASP7663 (#5178, Tocris, Bristol, UK) was diluted in 1% DMSO-containing calcium buffer at desired concentrations and was added during the recording. The TRPA1 antagonists HC-030031 (#2896, Tocris), TCS-5861528 (#3938, Tocris), and A-967079 (#4716, Tocris) were diluted in calcium buffer, and 5 µl of 10x solutions were added 10 minutes prior to the recording. The same amount of DMSO (1%) was added to all control groups to maintain similar DMSO levels with the experimental groups. During the assay, the cells were challenged by a 5x ASP7663 solution or 1% DMSO solution at the 20 seconds time point, and both solutions were diluted in calcium buffer. Relative fluorescence units (RFU) were measured for 120 seconds period by the Flexstation. Area under the curve (AUC) was further evaluated from individual calcium influx data (Supplemental Figs 2 and 4) to plot does-response curve of antagonists. For each specific antagonist concentration we plotted Log(dose ratio-1) against the antagonist concentration in a Schild plot. The dose ratio (A’/A) equals the EC50 of the agonist ([…]) in the presence of a concentration of the antagonist (A’) divided by the EC50 of the agonist in the absence of antagonist (A). The x-intercept of the Schild plot was used to identify the antagonist-receptor affinity (pA2).
All data are presented as means ± standard error of the mean (SEM). For our in vitro statistical analysis, AUC of calcium influx (RFU) was measured to plot dose-response curves, which were further analyzed by nonlinear regression analysis. Mean RFU of the first 10 seconds was used as a baseline of the AUC. EC50 values of the dose-response curves were further used to plot Schild curves, and the curves were analyzed with linear regression analysis. For the mice von Frey test, mechanical thresholds were analyzed with two-way ANOVA followed by a Bonferonni test for multiple comparison analysis. For the zebrafish behavior test, the data from the first five seconds following drug administration were excluded, as zebrafish displacement during that period was highly influenced by liquid dispensing. AUC of all curves were measured and analyzed by one-way ANOVA. The post-hoc analysis was conducted with the Tukey’s or Dunnett’s multiple comparisons unless it stated otherwise. […]

5 dpf zebrafish larvae = test: Zebrafish locomotor tracking assay; format: in vivo, Zebrafish (Danio rerio); conditions: for swimming (locomotor) behavior: 100 μM agonist, 5 dpf larvae, 300 s tracking
Description: Wild-type zebrafish of the AB line were utilized for all behavioral experiments. Adult and larval zebrafish were maintained on a 14 hr/10 hr light/dark cycle. They were maintained and bred using standard procedure https://zfin.org/zf_info/zfbook/zfbk.html. Larval zebrafish were reared until 5 days post-fertilization (dpf) in E3 media https://zfin.org/zf_info/zfbook/chapt1/1.3.html in an incubator at 28 °C. E3 media was changed daily, and healthy embryos were kept for experiments.
In the behavioral experiments, one 5 dpf zebrafish was placed in 250 μL of fish media per well of a 96-well plate (UNIPLATE Collection and Analysis Microplate, 96-Well 7701-1651). For each experimental condition, a group of 8 larvae (1 column) was used. Larvae were acclimated to the wells for 300 seconds after which an 8-channel pipette was used to simultaneously dispense 250 μL of 2x concentration of the TRPA1 agonist ASP7663 in fish media into each well. Locomotor activity was subsequently tracked and quantified (as distance travelled) for 300 additional seconds utilizing the Zebrabox system from ViewPoint Behavior Technology (Civrieux, France). For TRPA1 antagonist testing, larvae in the 96-well plate were pretreated with 1x concentration of antagonist in 250 μL E3 media for 20 minutes. Then, 250 μL of 2x TRPA1 agonist was added directly to this solution, and the resulting behavior was recorded as described above.
All data are presented as means ± standard error of the mean (SEM). For our in vitro statistical analysis, AUC of calcium influx (RFU) was measured to plot dose-response curves, which were further analyzed by nonlinear regression analysis. Mean RFU of the first 10 seconds was used as a baseline of the AUC. EC50 values of the dose-response curves were further used to plot Schild curves, and the curves were analyzed with linear regression analysis. For the mice von Frey test, mechanical thresholds were analyzed with two-way ANOVA followed by a Bonferonni test for multiple comparison analysis. For the zebrafish behavior test, the data from the first five seconds following drug administration were excluded, as zebrafish displacement during that period was highly influenced by liquid dispensing. AUC of all curves were measured and analyzed by one-way ANOVA. The post-hoc analysis was conducted with the Tukey’s or Dunnett’s multiple comparisons unless it stated otherwise. A value of y = 0 in the graph was used as a baseline of the AUC. For our time-course average displacement graph, we used 2nd degree polynomial smoothing for a better representation; however, we used data before smoothing for all statistical analysis and quantification. All in vitro and in vivo data were evaluated using GraphPad Prism 7 (GraphPad Software, La Jolla, CA) unless it stated otherwise.

[1] = agonist calcium influx, AUC of RFU, mTRPA1-transfected HEK293
[2] = Schild plot against ASP7663-induced calcium influx, mTRPA1

T1 sequence (Q8BLA8 whole entry): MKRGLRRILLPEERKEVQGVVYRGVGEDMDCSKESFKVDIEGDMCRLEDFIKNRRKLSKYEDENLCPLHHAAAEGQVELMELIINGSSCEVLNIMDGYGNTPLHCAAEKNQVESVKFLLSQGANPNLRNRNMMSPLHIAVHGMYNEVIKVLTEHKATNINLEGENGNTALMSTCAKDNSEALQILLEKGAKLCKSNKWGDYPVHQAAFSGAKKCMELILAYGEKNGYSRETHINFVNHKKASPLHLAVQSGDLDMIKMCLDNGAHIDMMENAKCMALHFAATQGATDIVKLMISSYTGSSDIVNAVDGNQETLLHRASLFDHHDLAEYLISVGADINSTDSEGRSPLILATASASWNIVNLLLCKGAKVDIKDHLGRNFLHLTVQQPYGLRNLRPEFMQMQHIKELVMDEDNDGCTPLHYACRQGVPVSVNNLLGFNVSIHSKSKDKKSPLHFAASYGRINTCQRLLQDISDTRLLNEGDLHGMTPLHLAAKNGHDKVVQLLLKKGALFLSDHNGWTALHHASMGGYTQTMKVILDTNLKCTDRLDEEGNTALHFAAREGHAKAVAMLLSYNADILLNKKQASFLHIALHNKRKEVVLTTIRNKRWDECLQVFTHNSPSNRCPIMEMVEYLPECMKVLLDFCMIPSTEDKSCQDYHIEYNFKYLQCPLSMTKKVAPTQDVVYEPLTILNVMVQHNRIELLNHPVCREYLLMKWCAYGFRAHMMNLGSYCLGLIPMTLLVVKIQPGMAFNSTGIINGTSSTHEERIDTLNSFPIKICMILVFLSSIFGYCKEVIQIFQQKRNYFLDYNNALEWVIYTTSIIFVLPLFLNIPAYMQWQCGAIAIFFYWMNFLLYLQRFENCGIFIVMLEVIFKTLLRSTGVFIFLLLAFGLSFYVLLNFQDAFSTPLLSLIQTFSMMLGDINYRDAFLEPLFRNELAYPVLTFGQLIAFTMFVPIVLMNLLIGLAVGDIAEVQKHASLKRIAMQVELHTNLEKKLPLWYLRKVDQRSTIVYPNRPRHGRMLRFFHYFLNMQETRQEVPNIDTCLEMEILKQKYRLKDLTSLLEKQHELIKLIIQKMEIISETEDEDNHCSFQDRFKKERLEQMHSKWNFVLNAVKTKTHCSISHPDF

Row | SMILES | persistence of calcium influx (mouse TRPA1 (mTRPA1); 316 µM, up to 120 seconds, compared to AITC) | pEC50 (mouse TRPA1 (mTRPA1); [1]) | EC50 (mouse TRPA1 (mTRPA1); [1]) [µM] | potency weaker than previously reported (fold) (mouse TRPA1 (mTRPA1); versus similar FLIPR-based calcium assay) | swimming (locomotor) behavior (5 dpf zebrafish larvae) | locomotor activity (5 dpf zebrafish larvae; ASP7663 higher concentration 31.6 and 100 μM) | locomotor activity (5 dpf zebrafish larvae; ASP7663 low doses 3.16 and 10 μM) | pA2 (mouse TRPA1 (mTRPA1); [2]) | pA2 expressed in µM (mouse TRPA1 (mTRPA1); [2]) [µM] | swimming behavior with antagonist alone (5 dpf zebrafish larvae; 10 μM HC-030031 alone vs E3) | inhibition of ASP7663 (100 μM)-mediated nocifensive locomotor behavior (5 dpf zebrafish larvae; 10 μM antagonist pre-incubation 20 minutes)
1 | CC(C)CN1C(=O)/C(=C/C(=O)O)c2cccc(F)c21 [ASP7663] | more persistent calcium influx compared to AITC | 5.16 ± 0.16 | 6.8 | ~ 10 fold | induced a slower and more sustained swimming behavior | hyperlocomotor activity | induced hypolocomotion |  |  |  | 
2 | CC(C)c1ccc(NC(=O)Cn2cnc3c2c(=O)n(C)c(=O)n3C)cc1 [HC-030031] |  |  |  |  |  |  |  | 5.65 ± 0.2 | 2.2 | increased swimming behavior over baseline | inhibited the nocifensive locomotor behavior
3 | C=CCN=C=S [AITC, allyl isothiocyanate] |  |  | 5.8 |  | elicited an acute and rapid swimming behavior immediately upon treatment |  |  |  |  |  | 
